Patent US20210128690A1, “METHODS OF ADMINISTERING HEPCIDIN” (La Jolla Pharmaceutical Company, priority 2016, published 2021)

Assay: hepcidin administration to human subjects (patients with sickle cell disease or hereditary hemochromatosis)
Format: in vivo
Conditions: doses of 1 mg hepcidin and 5 mg hepcidin
Description: FIG. 1 illustrates the change in serum ferritin levels at baseline and 8 days post hepcidin administration in two patients with sickle cell disease and a high ferritin serum baseline.
Efficacy at this dosing was not expected based on animal studies in mice, rats, and dogs.

Q: For `CC[C@H](C)[C@@H]1NC(=O)[C@@H](NC(=O)[C@@H](NC(=O)[C@@H]2CCCN2C(=O)[C@H](Cc2ccccc2)NC(=O)[C@H](Cc2c[nH]cn2)NC(=O)[C@@H](NC(=O)[C@@H](N)CC(=O)O)[C@@H](C)O)[C@@H](C)CC)CSSC[C@@H](C(=O)N[C@@H](CCCCN)C(=O)N[C@H](C(=O)O)[C@@H](C)O)NC(=O)[C@@H]2CSSC[C@@H]3NC(=O)[C@@H]4CSSC[C@H](NC(=O)[C@H](Cc5ccccc5)NC1=O)C(=O)N[C@@H](CSSC[C@H](NC(=O)[C@H](CCCCN)NC(=O)[C@H](CO)NC(=O)[C@H](CCCNC(=N)N)NC(=O)[C@H](Cc1c[nH]cn1)NC3=O)C(=O)NCC(=O)N[C@@H](CCSC)C(=O)N2)C(=O)NCC(=O)N4` [hepcidin], which “efficacy in human subjects” value is on record?
A: display efficacy
